Assay results reported in ChEMBL document CHEMBL1135948, “A solid-phase approach towards the synthesis of PDE5 inhibitors” (Bioorg Med Chem Lett, 2002).

What follows are compounds tested against cGMP-specific 3',5'-cyclic phosphodiesterase (Homo sapiens) (UniProt O76074) (assay: Percentage inhibition against phosphodiesterase 5 (PDE5) was determined using [3H]cGMP scintillation proximity assay at concentration of 1 uM).

| SMILES | inhibition [%] |
| --- | --- |
| CC(C)Cn1c(=O)n(CO)c(=O)c2[nH]c(Cc3ccc(Br)cc3)nc21 | 88 |
| CC(C)Cn1c(=O)n(C)c(=O)c2[nH]c(Cc3ccc(Br)cc3)nc21 | 93 |
| CC(C)Cn1c(=O)n(CN(C(C)C)C(C)C)c(=O)c2[nH]c(Cc3ccc(Br)cc3)nc21 | 41 |
| CC(C)Cn1c(=O)n(CN)c(=O)c2[nH]c(Cc3ccc(Br)cc3)nc21 | 38 |
| C#Cn1c(=O)c2[nH]c(Cc3ccc(Br)cc3)nc2n(CC(C)C)c1=O | 68 |
| CC(C)Cn1c(=O)n(COc2ccccc2)c(=O)c2[nH]c(Cc3ccc(Br)cc3)nc21 | 33 |
| CC(C)Cn1c(=O)n(Cc2cccc3c2OCO3)c(=O)c2[nH]c(Cc3ccc(Br)cc3)nc21 | 13 |
| CC(C)Cn1c(=O)n(-c2cncn2C)c(=O)c2[nH]c(Cc3ccc(Br)cc3)nc21 | 59 |
| CC(C)Cn1c(=O)n(-c2ccccn2)c(=O)c2[nH]c(Cc3ccc(Br)cc3)nc21 | 20 |
| CC(C)Cn1c(=O)[nH]c(=O)c2[nH]c(Cc3ccc(Br)cc3)nc21 | 42 |
| CC(C)Cn1c(=O)n(CSc2ccccc2)c(=O)c2[nH]c(Cc3ccc(Br)cc3)nc21 | 15 |
| CC(C)Cn1c(=O)n(CCC2CCCCC2)c(=O)c2[nH]c(Cc3ccc(Br)cc3)nc21 | 42 |

Other lines, results leading:

| inhibition [%] | SMILES |
| --- | --- |
| 93 | CCn1c(=O)c2[nH]c(Cc3ccc(Br)cc3)nc2n(CC(C)C)c1=O |
| 35 | CC(C)Cn1c(=O)n(CC(C)(C)C)c(=O)c2[nH]c(Cc3ccc(Br)cc3)nc21 |
| 22 | CC(C)Cn1c(=O)n(-c2ccncc2)c(=O)c2[nH]c(Cc3ccc(Br)cc3)nc21 |
| 38 | CCOc1ccccc1-n1c(=O)c2[nH]c(Cc3ccc(Br)cc3)nc2n(CC(C)C)c1=O |
| 57 | CCCn1c(=O)c2[nH]c(Cc3ccc(Br)cc3)nc2n(CC(C)C)c1=O |
| 4 | CC(C)Cn1c(=O)n(C2CCC2)c(=O)c2[nH]c(Cc3ccc(Br)cc3)nc21 |
